Source: patent US4963588A, “Use of ubenimex for treating myelodysplastic syndrome” (priority 1989, dated 1990)
Read-outs that look alike come from different tables or passages of the source.

Tests used:
[1] = test system: RAEB or RAEB-T patients (MDS); assay: Oral administration of the ubenimex capsule to RAEB or RAEB-T (MDS) patients, response observed; assay type: in vivo; parameters: key to Response: CR: complete remission; GR: good result
[2] = background statement; cited from earlier work
Acute toxicity in beagle = details: dog, in vivo, male, oral, * = maximum administration level
[3] = in vivo
[4] = Toxicity, general statement; details: acute toxicity table given for reference
aminopeptidase B = details: cf. U.S.P. No. 4,189,604; cited from earlier work
tumor = details: cf. Japanese Pat. Publication (A2) No. 9487/1985; cited from earlier work
Acute toxicity in mouse = details: in vivo, Mouse (ICR)
Acute toxicity in rat = details: in vivo, Rat (SD)
[5] = patient 1 (RAEB-T), 30mg/day oral
[6] = patient 2 (RAEB), 30mg/day oral
[7] = patient 3 (RAEB), 30mg/day oral
[8] = patient 4 (RAEB), 30mg/day oral
[9] = patient 5 (RAEB), 30mg/day oral
[10] = patient 6 (RAEB), 30mg/day oral

Structure (SMILES): CC(C)C[C@H](NC(=O)[C@@H](O)[C@H](N)Cc1ccccc1)C(=O)O [ubenimex, N-[(2S, 3R)-3-amono-2-hydroxy-4-phenylbutyryl]-(L)-leucine]
- Effectiveness as a remedy for MDS ([1]; 30mg/day oral): highly effective
- RAEB cases with complete remission ([1]; among six effective cases): three
- RAEB cases with good responses ([1]; among six effective cases): two
- RAEB-T cases with complete remission ([1]; among six effective cases): one
- Effect on cytopenia ([1]; anemia, thrombocytopenia and neutropenia): improve cytopenia
- Amount of transfusion to the patients ([1]; human, in vivo): reduced or sometimes become unnecessary
- Effect on excess blast ([1]; human, in vivo): reduce excess blast
- Effect on myelodysplasia ([1]; human, in vivo): improve myelodysplasia
- Patients with good results ([1]; of seven RAEB or RAEB-T patients, 30mg/day oral): six
- Days till response [1, 5]: 34 days
- Response [1, 5]: CR
- Peripheral blood Granulocytes No. ([1]; patient 1 (RAEB-T), 30mg/day oral, after treatment (BT 1.11)): 2.94e+09 L⁻¹
- Peripheral blood Hemoglobin ([1]; patient 1 (RAEB-T), 30mg/day oral, after treatment (BT 10.5)): 13.6 g/dL
- Bone marrow Blast ([1]; patient 1 (RAEB-T), 30mg/day oral, after treatment (BT 22.8)): 3.2%
- Peripheral blood Platelets ([1]; patient 1 (RAEB-T), 30mg/day oral, after treatment (BT 350)): 3.72e+11 L⁻¹
- Duration of response ([1]; patient 1 (RAEB-T), 30mg/day oral, observation continued): 8 week
- Days till response [1, 6]: 28 days
- Response [1, 6]: CR
- Peripheral blood Granulocytes No. ([1]; patient 2 (RAEB), 30mg/day oral, after treatment (BT 0.62)): 2.44e+09 L⁻¹
- Peripheral blood Hemoglobin ([1]; patient 2 (RAEB), 30mg/day oral, after treatment (BT 7.9)): 14.4 g/dL
- Bone marrow Blast ([1]; patient 2 (RAEB), 30mg/day oral, after treatment (BT 13.2)): 5.2%
- Peripheral blood Platelets ([1]; patient 2 (RAEB), 30mg/day oral, after treatment (BT 81)): 2.09e+11 L⁻¹
- Duration of response ([1]; patient 2 (RAEB), 30mg/day oral, ubenimex administration suspended): 11 week
- Days till response [1, 7]: 97 days
- Response [1, 7]: CR
- Peripheral blood Granulocytes No. ([1]; patient 3 (RAEB), 30mg/day oral, after treatment (BT 0.99)): 1.75e+09 L⁻¹
- Bone marrow Blast ([1]; patient 3 (RAEB), 30mg/day oral, after treatment (BT 5.2)): 0.4%
- Peripheral blood Hemoglobin ([1]; patient 3 (RAEB), 30mg/day oral, after treatment (BT 6.8)): 12.3 g/dL
- Peripheral blood Platelets ([1]; patient 3 (RAEB), 30mg/day oral, after treatment (BT 12)): 9.6e+10 L⁻¹
- Duration of response ([1]; patient 3 (RAEB), 30mg/day oral, observation continued): 21 week
- Days till response [1, 8]: 175 days
- Response [1, 8]: CR
- Peripheral blood Granulocytes No. ([1]; patient 4 (RAEB), 30mg/day oral, after treatment (BT 2.92)): 2.35e+09 L⁻¹
- Bone marrow Blast ([1]; patient 4 (RAEB), 30mg/day oral, after treatment (BT 6.0)): 2.0%
- Peripheral blood Hemoglobin ([1]; patient 4 (RAEB), 30mg/day oral, after treatment (BT 7.6)): 11.0 g/dL
- Peripheral blood Platelets ([1]; patient 4 (RAEB), 30mg/day oral, after treatment (BT 30)): 8.2e+10 L⁻¹
- Duration of response ([1]; patient 4 (RAEB), 30mg/day oral, observation continued): 28 week
- Days till response [1, 9]: 134 days
- Response [1, 9]: GR
- Peripheral blood Granulocytes No. ([1]; patient 5 (RAEB), 30mg/day oral, after treatment (BT 1.22)): 2.44e+09 L⁻¹
- Peripheral blood Hemoglobin ([1]; patient 5 (RAEB), 30mg/day oral, after treatment (BT 8.5)): 8.7 g/dL
- Peripheral blood Platelets ([1]; patient 5 (RAEB), 30mg/day oral, after treatment (BT 21)): 1.76e+11 L⁻¹
- Duration of response ([1]; patient 5 (RAEB), 30mg/day oral, observation continued): 32 week
- Days till response [1, 10]: 67 days
- Response [1, 10]: GR
- Peripheral blood Granulocytes No. ([1]; patient 6 (RAEB), 30mg/day oral, after treatment (BT 1.45)): 2.02e+09 L⁻¹
- Peripheral blood Hemoglobin ([1]; patient 6 (RAEB), 30mg/day oral, after treatment (BT 10.9)): 12.2 g/dL
- Peripheral blood Platelets ([1]; patient 6 (RAEB), 30mg/day oral, after treatment (BT 42)): 1.86e+11 L⁻¹
- Duration of response ([1]; patient 6 (RAEB), 30mg/day oral, observation continued): 20 week
- Toxicity [2]: low toxicity
- LD50 (Acute toxicity in beagle): > 1200 mg/kg
- Accumulated toxicity upon repeated administration [3]: low accumulated toxicity
- Toxicity [4]: low toxicity
- Inhibition of aminopeptidase B (aminopeptidase B): inhibits aminopeptidase B
- Antitumor activities (tumor): has a antitumor activities
- LD50 (Acute toxicity in mouse; ip, female, intraperitoneal): 190 mg/kg
- LD50 (Acute toxicity in mouse; ip, male, intraperitoneal): 190 mg/kg
- LD50 (Acute toxicity in mouse; po, female, * = maximum administration level): > 4000 mg/kg
- LD50 (Acute toxicity in mouse; po, male, * = maximum administration level): > 4000 mg/kg
- LD50 (Acute toxicity in mouse; sc, female, subcutaneous): 1900 mg/kg
- LD50 (Acute toxicity in mouse; sc, male, subcutaneous): 1300 mg/kg
- LD50 (Acute toxicity in rat; ip, first line, sex female, intraperitoneal): 900 mg/kg
- LD50 (Acute toxicity in rat; ip, second line, female, intraperitoneal): 780 mg/kg
- LD50 (Acute toxicity in rat; po, first line, sex female, * = maximum administration level): > 2000 mg/kg
- LD50 (Acute toxicity in rat; po, second line, female, * = maximum administration level): > 2000 mg/kg
- LD50 (Acute toxicity in rat; sc, first line, sex female, subcutaneous): 1900 mg/kg
- LD50 (Acute toxicity in rat; sc, second line, female, subcutaneous): 2100 mg/kg
